Among the data in US9434725B2, “5-azaindazole compounds and methods of use” (priority 2012, dated 2016) are Ki values, retold here.

Assay type in all cases: biochemical
One assay deals with PIM1 (Homo sapiens (Human), UniProt P11309). The assay is described as follows: biochemical. On the procedure:
(§1) A fluorescent-labeled Pim-specific peptide substrate, was custom synthesized by American Peptide Company (Sunnyvale, Calif.). Reaction Buffer contained 10 mM HEPES, pH 7.2, 10 mM MgCl2, 0.01% Tween 20, 2 mM DTT. Termination Buffer contained 190 mM HEPES, pH 7.2, 0.015% Brij-35, 0.2% Coating Reagent 3 (Caliper Life Sciences, Hopkinton, Mass.), 20 mM EDTA. Separation Buffer contained 100 mM HEPES, pH 7.2, 0.015% Brij-35, 0.1% Coating Reagent 3, 1:200 Coating Reagent 8 (Caliper Life Sciences, Hopkinton, Mass.), 10 mM EDTA and 5% DMSO.
(§2) PIM reactions were carried out in a final volume of 10 μL per well in a 384-well plate. […] After 90 minutes of incubation at room temperature, the phosphorylation reaction was stopped by the addition of 10 μL Termination Buffer. The product and substrate in each independent reaction were separated on a 12-sipper microfluidic chip (Caliper Life Sciences, Hopkinton, Mass.) run on a Caliper LC3000® (Caliper Life Sciences, Hopkinton, Mass.). The separation of product and substrate was optimized by choosing voltages and pressure using Caliper's Optimizer software (Hopkinton, Mass.). […] Substrate conversion was calculated from the electropherogram using HTS Well Analyzer software (Caliper Life Sciences, Hopkinton, Mass.). Ki values for the test compound were calculated.

Another assay deals with PIM2 (Homo sapiens (Human), UniProt Q9P1W9). Kind of assay: Pim kinase binding activity, Caliper LC3000 microfluidic peptide phosphorylation assay, PIM2. To be noted: 10 μM ATP, 90 min, room temperature; read-out: PIM2 LC3K (KI). On the procedure:
as §1, §2

The target of another assay is PIM3 (Homo sapiens (Human), UniProt Q86V86). The assay is described as follows: Pim kinase binding activity, Caliper LC3000 microfluidic peptide phosphorylation assay, PIM3. The settings on record: 10 μM ATP, 90 min, room temperature; read-out: PIM3 LC3K (KI). As for the experimental part: as §1, §2
[1] abbreviates: 10 μM ATP, 90 min, room temperature, read-out: PIM1 LC3K (KI).

SMILES strings stand for the structures. Like-named read-outs stand apart in the source and are kept apart here.

Broadly, the Ki is a measure of affinity in units of concentration, obtained from inhibition or displacement.

Chain of PIM2 (Q9P1W9 whole entry): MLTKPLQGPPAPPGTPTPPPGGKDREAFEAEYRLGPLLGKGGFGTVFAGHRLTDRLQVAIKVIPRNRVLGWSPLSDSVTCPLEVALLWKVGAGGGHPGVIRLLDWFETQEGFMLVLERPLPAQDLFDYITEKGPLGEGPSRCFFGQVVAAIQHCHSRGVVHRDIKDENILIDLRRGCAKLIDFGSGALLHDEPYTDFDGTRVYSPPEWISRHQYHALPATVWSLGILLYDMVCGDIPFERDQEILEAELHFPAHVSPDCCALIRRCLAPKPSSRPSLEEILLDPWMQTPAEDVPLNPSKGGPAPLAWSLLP
Chain of PIM1 (P11309 whole entry): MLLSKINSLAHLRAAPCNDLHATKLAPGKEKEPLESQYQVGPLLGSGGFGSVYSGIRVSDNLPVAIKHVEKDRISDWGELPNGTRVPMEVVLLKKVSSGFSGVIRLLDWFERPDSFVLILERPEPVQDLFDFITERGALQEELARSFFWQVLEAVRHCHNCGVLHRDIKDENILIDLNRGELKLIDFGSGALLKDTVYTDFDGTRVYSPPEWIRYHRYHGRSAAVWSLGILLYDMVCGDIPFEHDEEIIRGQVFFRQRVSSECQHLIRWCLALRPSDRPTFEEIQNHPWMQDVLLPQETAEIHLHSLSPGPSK

In the case of `Cc1ccc(-n2ncc3cnc(-c4cnn(CC(F)(F)F)c4)cc32)nc1N1CCNC[C@H](O)C1` (single isomer, unassigned) [Compound 263], the inhibitory constant (Ki) on PIM1 (setting [1]) stood at 0.253 nM; at PIM2, 6.51 nM; on PIM3, 0.536 nM.
With `Cn1cc(-c2cc3c(cn2)cnn3-c2cccc(N3CCNCC3)n2)cn1` [Compound 102, 6-(1-methyl-1H-pyrazol-4-yl)-1-(6-(piperazin-1-yl)pyridin-2-yl)-1H-pyrazolo[4,3-c]pyridine], the values for the Ki on PIM1 (setting [1]) and at PIM2 were 0.623 nM and 12.1 nM, respectively.
As to `c1cc(N2CCNCC2)nc(-n2ncc3cnc(-c4cncc(C5CC5)c4)cc32)c1` [Compound 111, 6-(5-cyclopropylpyridin-3-yl)-1-(6-(piperazin-1-yl)pyridin-2-yl)-1H-pyrazolo[4,3-c]pyridine], the Ki came out at 0.165 nM on PIM1 (setting [1]), 9.11 nM on PIM2 and 0.181 nM at PIM3.
On to `C[C@H]1CN(c2cccc(-n3ncc4cnc(-c5cncc(C6COC6)c5)cc43)n2)CCN1` [Compound 113, (S)-1-(6-(3-methylpiperazin-1-yl)pyridin-2-yl)-6-(5-(oxetan-3-yl)pyridin-3-yl)-1H-pyrazolo[4,3-c]pyridine], for which the Ki was 0.107 nM at PIM1 (setting [1]), 10.1 nM at PIM2 and 0.186 nM at PIM3.
On the same counts, the results for `c1cc(N2CCNCC2)nc(-n2ncc3cnc(-c4cncc(C5COC5)c4)cc32)c1` [Compound 114, 6-(5-(oxetan-3-yl)pyridin-3-yl)-1-(6-(piperazin-1-yl)pyridin-2-yl)-1H-pyrazolo[4,3-c]pyridine] are 0.479 nM, 16.9 nM and 0.652 nM.
For `OC1CNCCN(c2cccc(-n3ncc4cnc(-c5cncc(C6CC6)c5)cc43)n2)C1` (centres unmarked) [Compound 115, 1-(6-(6-(5-cyclopropylpyridin-3-yl)-1H-pyrazolo[4,3-c]pyridin-1-yl)pyridin-2-yl)-1,4-diazepan-6-ol], the inhibitory constant (Ki) at PIM1 (setting [1]) is 0.155 nM; on PIM2 it was 14.9 nM; at PIM3, 0.306 nM.
On the same counts, the results for `OC1CNCCN(c2cccc(-n3ncc4cnc(-c5cncc(C6COC6)c5)cc43)n2)C1` (centres unmarked) [Compound 116, 1-(6-(6-(5-(oxetan-3-yl)pyridin-3-yl)-1H-pyrazolo[4,3-c]pyridin-1-yl)pyridin-2-yl)-1,4-diazepan-6-ol] are 0.294 nM, 27.6 nM and 0.405 nM.
For `c1cc(N2CCCNCC2)nc(-n2ncc3cnc(-c4cncc(C5COC5)c4)cc32)c1` [Compound 118, 1-(6-(1,4-diazepan-1-yl)pyridin-2-yl)-6-(5-(oxetan-3-yl)pyridin-3-yl)-1H-pyrazolo[4,3-c]pyridine], the Ki on PIM1 (setting [1]) came to 0.08 nM; at PIM2 it was 9.04 nM; on PIM3, 0.117 nM.
On the same counts, the results for `Cc1cc(-c2cc3c(cn2)cnn3-c2cccc(N3CCNCC3)n2)sn1` [Compound 119, 3-methyl-5-[1-(6-piperazin-1-yl-2-pyridyl)pyrazolo[4,3-c]pyridin-6-yl]isothiazole] are 0.426 nM, 8.49 nM and 0.307 nM.
Regarding `CCn1cc(-c2cc3c(cn2)cnn3-c2cccc(N3CC[C@H](O)C3)n2)cn1` [Compound 127, (S)-1-(6-(6-(1-ethyl-1H-pyrazol-4-yl)-1H-pyrazolo[4,3-c]pyridin-1-yl)pyridin-2-yl)pyrrolidin-3-ol], the values for the inhibition constant (Ki) at PIM1 (setting [1]) and at PIM3 were 3.04 nM and 1.31 nM, respectively.
Regarding `CCn1cc(-c2cc3c(cn2)cnn3-c2cccc(N3CC[C@@H](O)C3)n2)cn1` [Compound 128, (R)-1-(6-(6-(1-ethyl-1H-pyrazol-4-yl)-1H-pyrazolo[4,3-c]pyridin-1-yl)pyridin-2-yl)pyrrolidin-3-ol], the values for the Ki on PIM1 (setting [1]) and on PIM3 were 7.22 nM and 4.39 nM, respectively.
For the molecule `Cc1cncc(-c2cc3c(cn2)cnn3-c2cccc(N3CCNC(C)CC3)n2)n1` (centres unmarked) [Compound 184, 1-[6-(5-methyl-1 4-diazepan-1-yl)-2-pyridyl]-6-(6-methylpyrazin-2-yl)pyrazolo[4,3-c]pyridine], the values for the Ki at PIM2 and on PIM3 were 2.42 nM and 0.076 nM, respectively.
The matching figures for `Cc1cncc(-c2cc3c(cn2)cnn3-c2cccc(N3CCNC[C@H]3C)n2)n1` [Compound 191, 1-[6-[(2R)-2-methylpiperazin-1-yl]-2-pyridyl]-6-(6-methylpyrazin-2-yl)pyrazolo[4,3-c]pyridine]: 0.659 nM and 0.033 nM.
The matching figures for `Cc1cncc(-c2cc3c(cn2)cnn3-c2cccc(N3CCCC(N)C3C)n2)n1` (centres unmarked) [Compound 195, 2-methyl-1-[6-[6-(6-methylpyrazin-2-yl)pyrazolo[4,3-c]pyridin-1-yl]-2-pyridyl]piperidin-3-amine]: 1.03 nM and 0.057 nM.
As to `Cc1nc(-c2cc3c(cn2)cnn3-c2cccc(N3CCCNCC3)n2)cnc1N` [Compound 208, 5-(1-(6-(1,4-diazepan-1-yl)pyridin-2-yl)-1H-pyrazolo[4,3-c]pyridin-6-yl)-3-methylpyrazin-2-amine], the Ki on PIM2 is 0.748 nM; at PIM3, 0.014 nM.
For `Cc1cncc(-c2cc3c(cn2)cnn3-c2ccc(F)c(N3CCC[C@H](N)C3)n2)n1` [Compound 215, (S)-1-(3-fluoro-6-(6-(6-methylpyrazin-2-yl)-1H-pyrazolo[4,3-c]pyridin-1-yl)pyridin-2-yl)piperidin-3-amine], the inhibition constant Ki on PIM2 was 0.314 nM; at PIM3 it was 0.011 nM.
For `Cc1cncc(-c2cc3c(cn2)cnn3-c2ccc(C(F)(F)F)c(N3CCC[C@H](N)C3)n2)n1` [Compound 220, (S)-1-(6-(6-(6-methylpyrazin-2-yl)-1H-pyrazolo[4,3-c]pyridin-1-yl)-3-(trifluoromethyl)pyridin-2-yl)piperidin-3-amine], the results for the inhibition constant Ki at PIM2 and at PIM3 were 0.115 nM and 0.009 nM, respectively.
On the same counts, the results for `Cn1cc(-c2cc3c(cn2)cnn3-c2cccc(N3CCCNCC3)n2)cn1` [Compound 224, 1-(6-(1,4-Diazepan-1-yl)pyridin-2-yl)-6-(1-methyl-1H-pyrazol-4-yl)-1H-pyrazolo[4,3-c]pyridine] are 5.01 nM and 0.097 nM.
Turning to `Cc1cncc(-c2cc3c(cn2)cnn3-c2cccc(N3CCC[C@H](N)C3=O)n2)n1` [Compound 225, (3S)-3-amino-1-[6-[6-(6-methylpyrazin-2-yl)pyrazolo[4,3-c]pyridin-1-yl]-2-pyridyl]piperidin-2-one], the Ki at PIM2 turned out to be 4.29 nM; at PIM3 it was 0.267 nM.
`Cc1cncc(-c2cc3c(cn2)cnn3-c2cccc(C3CNCCC3(F)F)n2)n1` (centres unmarked) [Compound 259, 1-[6-(4,4-difluoro-3-piperidyl)-2-pyridyl]-6-(6-methylpyrazin-2-yl)pyrazolo[4,3-c]pyridine]: the Ki is 0.053 nM on PIM1 (setting [1]) and 0.242 nM on PIM2.
For the molecule `Cn1cc(-c2cc3c(cn2)cnn3-c2cccc(N3CC4(CNC4)C3)n2)cn1` [Compound 268, 1-(6-(2,6-Diazaspiro[3.3]heptan-2-yl)pyridin-2-yl)-6-(1-methyl-1H-pyrazol-4-yl)-1H-pyrazolo[4,3-c]pyridine], the results for the Ki at PIM1 (setting [1]) and at PIM2 were 11.5 nM and 149 nM, respectively.
With `Cc1cncc(-c2cc3c(cn2)cnn3-c2ccc(=O)n([C@@H]3CCCNC3)n2)n1` [Compound 290, (R)-6-(6-(6-methylpyrazin-2-yl)-1H-pyrazolo[4,3-c]pyridin-1-yl)-2-(piperidin-3-yl)pyridazin-3(2H)-one], the Ki on PIM1 was found to be 16.3 nM; on PIM2, 43.2 nM.
Regarding `CNc1cccc(-n2ncc3cnc(-c4cncc(C)n4)cc32)n1` [Compound 297, N-methyl-6-(6-(6-methylpyrazin-2-yl)-1H-pyrazolo[4,3-c]pyridin-1-yl)pyridin-2-amine], the results for the Ki at PIM2 and on PIM3 were 3.43 nM and 0.235 nM, respectively.
For `Cc1cncc(-c2cc3c(cn2)cnn3-c2cccc(C(=O)N3CCC[C@H](N)C3)n2)n1` [Compound 302, (S)-(3-aminopiperidin-1-yl)(6-(6-(6-methylpyrazin-2-yl)-1H-pyrazolo[4,3-c]pyridin-1-yl)pyridin-2-yl)methanone], the Ki on PIM2 was 183 nM; on PIM3, 20.1 nM.
On the same counts, the results for `Cc1cncc(-c2cc3c(cn2)cnn3-c2cccc(C(=O)N3CCC[C@@H](N)C3)n2)n1` [Compound 303, (R)-(3-aminopiperidin-1-yl)(6-(6-(6-methylpyrazin-2-yl)-1H-pyrazolo[4,3-c]pyridin-1-yl)pyridin-2-yl)methanone] are 193 nM and 15.6 nM.
Consider `c1ccc(-n2ncc3cnc(-c4cncc(NC5CNC5)n4)cc32)nc1` [Compound 308, N-(azetidin-3-yl)-6-(1-(pyridin-2-yl)-1H-pyrazolo[4,3-c]pyridin-6-yl)pyrazin-2-amine], for which the Ki at PIM2 was 4.31 nM; on PIM3 it was 0.4 nM.
As to `Cc1cncc(-c2cc3c(cn2)cnn3-c2cccc(OC3CCCC(N)C3)n2)n1` (centres unmarked) [Compound 310, 3-(6-(6-(6-methylpyrazin-2-yl)-1H-pyrazolo[4,3-c]pyridin-1-yl)pyridin-2-yloxy)cyclohexanamine], the results for the Ki on PIM1 (setting [1]) and at PIM3 were 1.64 nM and 1.63 nM, respectively.
